Consider eleven compounds from ChEMBL document CHEMBL1201862, “PubChem BioAssay data set” (2004).

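Tested at 5 concentrations; 48 h exposure; 96-well plates; endpoints linearly interpolated, else capped at highest concentration. The concentration for 50% growth inhibition is given as GI50.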 Calls of active or inactive are those of the source. No stated cut-off is given here; in the data, active = GI50 up to about 1.1 µM and inactive = higher.

Some test systems named below: PC-3; UACC-62; SF-295; HCT-15; ACHN; RXF 393; CCRF-CEM; U-251; OVCAR-4; OVCAR-8; HOP-62; SF-539; DU-145; SNB-75; BT-549; NCI-H23; COLO 205; A549; KM12; RPMI-8226.
What all share (test): growth of human tumour cells (NCI), 48 h

Take `O=C(OC1C#CCSCC#C/C=C\1)c1cnc2ccccc2n1` (centres undefined): the GI50 is > 100 µM (inactive) in the assay on PC-3; > 100 µM (inactive) in the assay with UACC-62; > 100 µM (inactive) in the assay on SF-295; above 100 µM in the assay with HCT-15; > 100 µM (inactive) in the assay on ACHN; 79.8 µM (inactive) with RXF 393. Besides, the GI50 is 53.6 µM (inactive) in the assay on CCRF-CEM; > 100 µM (inactive) with U-251; > 100 µM (inactive) in the assay with OVCAR-4; 0.409 µM (active) in the assay on OVCAR-8; > 100 µM (inactive) with HOP-62; > 100 µM (inactive) in the assay with SF-539. Moreover, the GI50 is > 100 µM (inactive) in the assay on DU-145; > 100 µM (inactive) in the assay on SNB-75; > 100 µM (inactive) with BT-549; > 100 µM (inactive) with NCI-H23; 14.6 µM (inactive) with COLO 205.
Turning to `Cc1nc2c(ccc3[nH]c4ccccc4c32)s1`, the GI50 with PC-3 was 17.7 µM (inactive); in the assay on UACC-62, 18.4 µM (inactive); in the assay with A549, 28.4 µM (inactive); with HCT-15, 18.8 µM; in the assay with ACHN, 35.1 µM (inactive); in the assay with RXF 393, 29.8 µM (inactive). The GI50 in the assay with CCRF-CEM was 18.8 µM (inactive); in the assay with U-251, 20.5 µM (inactive); in the assay with OVCAR-4 it was 25.5 µM (inactive); in the assay with OVCAR-8, 30.1 µM (inactive); in the assay on HOP-62 it was 17.4 µM (inactive); with SF-539, 26 µM (inactive). The GI50 was 33.8 µM (inactive) in the assay with DU-145; 32.9 µM (inactive) in the assay with SNB-75; 19.1 µM (inactive) in the assay on BT-549; 25.5 µM (inactive) with KM12; 30.2 µM (inactive) with NCI-H23; 20.5 µM (inactive) with COLO 205.
Turning to `COc1ccc2o/c(=N\c3ccc(F)cc3)c(C(N)=O)cc2c1`, the GI50 with PC-3 was > 100 µM (inactive); in the assay on UACC-62, 35.3 µM (inactive); in the assay on SF-295, 33.7 µM (inactive); in the assay on A549 it was 64.3 µM (inactive); in the assay on HCT-15, above 100 µM; with ACHN, 30.5 µM (inactive). For the same compound, the GI50 with RXF 393 was 12.4 µM (inactive); in the assay with CCRF-CEM it was > 100 µM (inactive); in the assay with U-251, 34.7 µM (inactive); in the assay with OVCAR-4 it was 27.9 µM (inactive); in the assay on OVCAR-8 it was 17.8 µM (inactive); with HOP-62 it was 29.1 µM (inactive). Further, the GI50 was > 100 µM (inactive) in the assay with RPMI-8226; > 100 µM (inactive) in the assay on DU-145; 12.6 µM (inactive) in the assay with SNB-75; > 100 µM (inactive) in the assay with BT-549; > 100 µM (inactive) in the assay on KM12; 29.3 µM (inactive) in the assay on NCI-H23. Besides, the GI50 with COLO 205 is > 100 µM (inactive).
On to `CO[P@@]1(=O)O[C@@H](c2ccccc2)[C@H](O)[C@@]1(O)c1ccccc1`, for which the GI50 is > 100 µM (inactive) in the assay on PC-3; > 100 µM (inactive) in the assay with UACC-62; > 100 µM (inactive) in the assay on SF-295; > 100 µM (inactive) with A549; above 100 µM in the assay with HCT-15; > 100 µM (inactive) with ACHN. In addition, the GI50 in the assay on RXF 393, with CCRF-CEM, with U-251, with OVCAR-4, in the assay with OVCAR-8 and in the assay on SF-539 was > 100 µM (inactive) throughout. Moreover, the GI50 with DU-145, in the assay with SNB-75, in the assay with BT-549, with KM12, in the assay on NCI-H23 and with COLO 205 was > 100 µM (inactive) throughout.
With `CC(C)CC1NC(=O)C(C(C)C)NC(=O)CC(C)COC(=O)C(CC(C)C)N(C)C(=O)C(C(C)C)NC(=O)C(C(C)C)OC1=O` (centres undefined), the GI50 was > 50 µM (inactive) in the assay with PC-3; 16 µM (inactive) in the assay on UACC-62; 38.4 µM (inactive) in the assay on SF-295; > 50 µM (inactive) with A549; above 50 µM in the assay with HCT-15; > 50 µM (inactive) in the assay on ACHN. The GI50 in the assay with RXF 393 is 16.1 µM (inactive); in the assay with CCRF-CEM, 15.2 µM (inactive); in the assay on U-251 it was 31.2 µM (inactive); in the assay with OVCAR-8, 34.7 µM (inactive); in the assay with HOP-62 it was 15.2 µM (inactive); in the assay on SF-539, 8.28 µM (inactive). Further, the GI50 in the assay with DU-145 is > 50 µM (inactive); with SNB-75, 10.9 µM (inactive); in the assay on BT-549, > 50 µM (inactive); in the assay on KM12 it was > 50 µM (inactive); with NCI-H23, > 50 µM (inactive); in the assay with COLO 205, > 50 µM (inactive).
Regarding `CN(C)C1=Nc2ccccc2C(=S)N2CSCC12` (centres undefined), the GI50 in the assay on PC-3 is > 100 µM (inactive); in the assay on UACC-62, 75.5 µM (inactive); in the assay on SF-295, > 100 µM (inactive); in the assay with A549 it was > 100 µM (inactive); in the assay on HCT-15, 34 µM; in the assay with ACHN, > 100 µM (inactive). Moreover, the GI50 was 44.7 µM (inactive) in the assay on RXF 393; 16.4 µM (inactive) with CCRF-CEM; 35.6 µM (inactive) in the assay with U-251; > 100 µM (inactive) with OVCAR-4; > 100 µM (inactive) in the assay on OVCAR-8; > 100 µM (inactive) in the assay on HOP-62. Also, the GI50 in the assay on RPMI-8226 is 51.4 µM (inactive); in the assay on DU-145, > 100 µM (inactive); in the assay on SNB-75, 57.3 µM (inactive); in the assay on BT-549, 78.5 µM (inactive); in the assay with KM12, > 100 µM (inactive); in the assay on COLO 205, 22.3 µM (inactive).
On to `Cc1cc(S(=O)(=O)Nc2nc3cc(-c4ccc(Cl)cc4)sc3c(=O)n2N)c(S)cc1Cl`, for which the GI50 in the assay with PC-3 is 63.2 µM (inactive); with UACC-62 it was 31.7 µM (inactive); in the assay on SF-295, 33.3 µM (inactive); in the assay with A549, > 100 µM (inactive); with HCT-15, 45.6 µM; in the assay with ACHN it was 26.5 µM (inactive). Moreover, the GI50 was 37.2 µM (inactive) in the assay with RXF 393; 27.2 µM (inactive) with CCRF-CEM; 43.4 µM (inactive) in the assay on U-251; 64.4 µM (inactive) in the assay with OVCAR-4; 50.2 µM (inactive) in the assay on OVCAR-8; 36.3 µM (inactive) with HOP-62. In addition, the GI50 was > 100 µM (inactive) in the assay on RPMI-8226; 37.2 µM (inactive) with DU-145; > 100 µM (inactive) in the assay with SNB-75; > 100 µM (inactive) with BT-549; 34.2 µM (inactive) in the assay with KM12; 59.8 µM (inactive) in the assay with NCI-H23. In the assay with COLO 205, the GI50 was 17 µM (inactive).
In the case of `COc1cc(S(=O)(=O)Nc2ccc(-c3csc(N4C(=O)C(C)SC4c4ccccc4O)n3)cc2)ccc1Cl` (centres undefined), the GI50 in the assay on PC-3 is 29.9 µM (inactive); in the assay on UACC-62, 31 µM (inactive); in the assay on SF-295, 59.3 µM (inactive); in the assay on A549, > 100 µM (inactive); with HCT-15 it was 36.9 µM; with ACHN, 65.8 µM (inactive). For the same compound, the GI50 in the assay with CCRF-CEM is 25.9 µM (inactive); with OVCAR-8 it was 40.9 µM (inactive); with HOP-62, 82.6 µM (inactive); in the assay with RPMI-8226, 32.1 µM (inactive); with SF-539, 34.8 µM (inactive); in the assay with DU-145, 41.3 µM (inactive). Also, the GI50 in the assay with SNB-75 was 28.8 µM (inactive); in the assay on BT-549, 27 µM (inactive); with KM12, 29.7 µM (inactive); with NCI-H23 it was 30.1 µM (inactive); in the assay with COLO 205 it was 25.2 µM (inactive).
Turning to `O=C(Nc1ccc(Cl)cc1)C(=O)C1=C(O)c2ccccc2OC1`, the GI50 was > 100 µM (inactive) in the assay with PC-3; > 100 µM (inactive) in the assay on UACC-62; > 100 µM (inactive) in the assay on SF-295; > 100 µM (inactive) in the assay on A549; above 100 µM in the assay on HCT-15; > 100 µM (inactive) with ACHN. In addition, the GI50 in the assay with CCRF-CEM, with U-251, with OVCAR-4, in the assay on OVCAR-8, in the assay with RPMI-8226 and with SF-539 was > 100 µM (inactive) each time. The GI50 is > 100 µM (inactive) in the assay with DU-145; 33.1 µM (inactive) in the assay with SNB-75; > 100 µM (inactive) with BT-549; 80.5 µM (inactive) in the assay on KM12; > 100 µM (inactive) in the assay with NCI-H23; > 100 µM (inactive) in the assay with COLO 205.
In the case of `NC(=O)NC(=O)Nc1ccc(Br)cc1`, the GI50 in the assay on PC-3 was 23.9 µM (inactive); in the assay with UACC-62, 2.92 µM (inactive); in the assay with SF-295, 14.7 µM (inactive); in the assay on A549 it was > 16.6 µM (inactive); with HCT-15 it was 28 µM; in the assay with ACHN, > 9.62 µM (inactive). The GI50 is > 4.65 µM (inactive) in the assay on CCRF-CEM; 11.7 µM (inactive) in the assay with U-251; > 24.3 µM (inactive) in the assay with OVCAR-4; > 13.7 µM (inactive) in the assay on OVCAR-8; > 15.8 µM (inactive) in the assay with HOP-62; 10.3 µM (inactive) in the assay on RPMI-8226. The GI50 was > 17.3 µM (inactive) with SF-539; > 100 µM (inactive) in the assay on DU-145; 3.19 µM (inactive) in the assay on SNB-75; > 20 µM (inactive) in the assay on BT-549; 21.8 µM (inactive) with KM12; > 14.5 µM (inactive) in the assay with NCI-H23. The GI50 with COLO 205 is 11.3 µM (inactive).
Turning to `CCOC(=O)N1c2ccccc2S(=O)(=O)c2ccccc21`, the GI50 is > 100 µM (inactive) with PC-3; > 100 µM (inactive) with UACC-62; > 100 µM (inactive) in the assay on SF-295; > 100 µM (inactive) in the assay on A549; above 100 µM in the assay on HCT-15; > 100 µM (inactive) in the assay with ACHN. Besides, the GI50 in the assay with RXF 393, with CCRF-CEM, with U-251, in the assay on OVCAR-4, in the assay with OVCAR-8 and with HOP-62 was > 100 µM (inactive) throughout. The GI50 in the assay on SF-539, in the assay on DU-145, in the assay on BT-549, with KM12, in the assay with NCI-H23 and in the assay with COLO 205 was > 100 µM (inactive) each time.
